Measured values: patent US20230270713A1, “Administration of Resiniferatoxin For Treatment of Bladder Pain or Bladder Cancer” (Sorrento Therapeutics, Inc., priority 2020, published 2023)

Key:
[1] = system: CGRP and SP nerve fibers innervating dog bladder; experiment: Density of CGRP and SP axons in canine bladder (IHC, confocal); type: in vivo; conditions: dogs
Description: Canine bladders from a healthy dog (control) and from dogs with intravesical application of resiniferatoxin (RTX) at 2 different doses (25 mcg and 250 mcg) were prepared for immunohistochemistry and confocal laser microscopy to quantify the axons expressing substance P (SP) and calcitonin-gene related peptide (CGRP). Confocal images were obtained at 40× magnification using a Carl Zeiss scanning confocal laser microscope (model LSM 800, Jena, Germany) with Z-stack function.

dogs with bladder cancer = experiment: Lower urinary tract symptom scale in dogs with bladder cancer (Example D); type: in vivo, dog; conditions: 1.0 or 2.0 ug/ml intravesical
Description: Dogs with bladder cancer were treated with RTX as follows. Under general anesthesia, RTX was infused directly into the bladder using a foley catheter. RTX remained in the bladder for 30 minutes before removal.
6 dogs were enrolled and treated at the following doses: • <10 kg: RTX 25 ug diluted in 24 ml NaCl (1.0 ug/ml solution) • >10 kg: RTX 50 ug diluted in 48 ml NaCl (1.0 ug/ml solution)
7 dogs were then enrolled and treated at the following doses: • <10 kg: RTX 25 ug diluted in 11.5 ml NaCl (2.0 ug/ml solution) • 10-25 kg: RTX 50 ug diluted in 23 ml NaCl (2.0 ug/ml solution) • >25 kg: RTX 100 ug diluted in 46 ml NaCl (2.0 ug/ml solution)
Three dogs were treated twice with at least 28 days between treatments. Two dogs were lost to follow-up after day 0.
The primary endpoint was assessment of improvement of lower urinary tract signs with a 4-point lower urinary tract symptom scale (character of urination/degree of straining; frequency of urination (daytime); frequency of urination (nighttime); and blood in urine). The secondary endpoints were anti-cancer effect, as measured by bladder ultrasound, and quality of life.

[2] = system: cats with FIC (Feline Idiopathic Cystitis); experiment: Cystitis Events Survey in cats with Feline Idiopathic Cystitis; type: in vivo, cat; conditions: for Cystitis Improvement ≥2 Point, cats n/N / Cystitis Improvement ≥3 Point, cats n/N / Cystitis Improvement ≥2 Point, percent of cats / Cystitis Improvement ≥3 Point, percent of cats: Day 28
Description: The Cystitis Events Survey consists a 5-point scale, ranging from 0=normal cat to 5=very severe sign of cystitis. Clinical signs of cystitis included in this survey are: increased frequency of urination; straining while urinating; crying out/vocalizing while urinating; presence of blood in urine; urination outside of litter box; and increased grooming around perineum.
The use of the Cystitis Events Survey was exploratory, and no strict definition of success was applied to the results. However, and based on published literature, the results were described as follows: (1) percentage of cats per cohort with an average improvement of 2 or more points and no increase in any individual score on Day 28; and (2) percentage of cats per cohort with an average improvement of 3 or more points and no increase in any individual score on Day 28.
[…] Intravesical instillation: After the cat has reached an adequate anesthesia level, the perineal area was prepared using a standard aseptic technique. After preparation, a urinary catheter (type and size decided on a case by case basis) was placed using aseptic technique. Then, the urinary bladder was emptied and flushed with 20 ml of sterile saline. Once the flush solution was removed, the RTX solution was infused through the urinary catheter over 2 minutes. Once the total volume of the solution is infused, the solution was left in the urinary bladder for 20 min. At the end of this period the IVP (investigational veterinary product) solution was removed. Finally, the urinary catheter was removed, and the perineal area was flushed with 20 ml of saline. The total amount of solution removed from the bladder was recorded.
24 cats were treated and the cohorts and their respective IVP treatments are described in the table 9 below. The cohorts were populated and dosed sequentially. Cats enrolled in Cohorts 2, 3 and 4 were dosed at least 3 days after the previous cohort closed.

[3] = 6.25 μg (0.25 μg/mL), Day 0, n 6
[4] = 6.25 μg (0.25 μg/mL), Day 28, n 6
[5] = 12.5 μg (0.5 μg/mL), Day 0, n 6
[6] = 12.5 μg (0.5 μg/mL), Day 28, n 5
[7] = 12.5 μg (1.25 μg/mL), Day 0, n 6
[8] = 12.5 μg (1.25 μg/mL), Day 28, n 6

C=C(C)[C@]12C[C@@H](C)[C@@]34O[C@](Cc5ccccc5)(O[C@@H]1[C@@H]3C=C(COC(=O)Cc1ccc(O)c(OC)c1)C[C@]1(O)C(=O)C(C)=C[C@@H]41)O2 [RTX, resiniferatoxin]
CGRP and SP axons innervating the bladder body ([1]; 25 mcg and 250 mcg intravesical, vs control dog): drastic reduction
density of CGRP and SP nerve fibers innervating the body, trigon, and fundus ([1]; 25 mcg and 250 mcg, vs control tissue): reduced
effect of 250 mcg in reducing density of CGRP and SP compared with 25 mcg ([1]; 250 mcg vs 25 mcg): greater effect
Improvement of at Least 1 Score, percent of dogs (dogs with bladder cancer; Day 7, n = 11): 54.5%
Improvement of at Least 2 Scores, percent of dogs (dogs with bladder cancer; Day 7, n = 11): 36.4%
Improvement of at least 1 score (lower urinary tract symptom scale), number of dogs (dogs with bladder cancer; Day 7, n = 11): 6
Improvement of at least 2 scores (lower urinary tract symptom scale), number of dogs (dogs with bladder cancer; Day 7, n = 11): 4
Improvement of at Least 1 Score, percent of dogs (dogs with bladder cancer; Day 14, n = 11): 72.7%
Improvement of at Least 2 Scores, percent of dogs (dogs with bladder cancer; Day 14, n = 11): 45.5%
Improvement of at least 1 score (lower urinary tract symptom scale), number of dogs (dogs with bladder cancer; Day 14, n = 11): 8
Improvement of at least 2 scores (lower urinary tract symptom scale), number of dogs (dogs with bladder cancer; Day 14, n = 11): 5
Improvement of at Least 1 Score, percent of dogs (dogs with bladder cancer; Day 28, n = 8): 75.0%
Improvement of at Least 2 Scores, percent of dogs (dogs with bladder cancer; Day 28, n = 8): 50.0%
Improvement of at least 1 score (lower urinary tract symptom scale), number of dogs (dogs with bladder cancer; Day 28, n = 8): 6
Improvement of at least 2 scores (lower urinary tract symptom scale), number of dogs (dogs with bladder cancer; Day 28, n = 8): 4
Improvement of at Least 1 Score, percent of dogs (dogs with bladder cancer; Day 56, n = 5): 100%
Improvement of at Least 2 Scores, percent of dogs (dogs with bladder cancer; Day 56, n = 5): 60.0%
Improvement of at least 1 score (lower urinary tract symptom scale), number of dogs (dogs with bladder cancer; Day 56, n = 5): 5
Improvement of at least 2 scores (lower urinary tract symptom scale), number of dogs (dogs with bladder cancer; Day 56, n = 5): 3
Improvement of at Least 1 Score, percent of dogs (dogs with bladder cancer; Day 84, n = 3): 100%
Improvement of at Least 2 Scores, percent of dogs (dogs with bladder cancer; Day 84, n = 3): 66.7%
Improvement of at least 1 score (lower urinary tract symptom scale), number of dogs (dogs with bladder cancer; Day 84, n = 3): 3
Improvement of at least 2 scores (lower urinary tract symptom scale), number of dogs (dogs with bladder cancer; Day 84, n = 3): 2
cystitis events survey, Maximum [2, 3]: 18.0
cystitis events survey, Mean [2, 3]: 13.00
cystitis events survey, Median [2, 3]: 12.00
cystitis events survey, Minimum [2, 3]: 10.0
cystitis events survey, Maximum [2, 4]: 14.0
cystitis events survey, Mean [2, 4]: 8.33
cystitis events survey, Median [2, 4]: 8.00
cystitis events survey, Minimum [2, 4]: 3.0
Cystitis Improvement ≥2 Point, cats n/N ([2]; 6.25 μg/25 mL (Cohort 2)): 4/6
Cystitis Improvement ≥3 Point, cats n/N ([2]; 6.25 μg/25 mL (Cohort 2)): 2/6
cystitis events survey, Maximum [2, 5]: 13.0
cystitis events survey, Mean [2, 5]: 11.33
cystitis events survey, Median [2, 5]: 11.00
cystitis events survey, Minimum [2, 5]: 10.0
cystitis events survey, Maximum [2, 6]: 7.0
cystitis events survey, Mean [2, 6]: 5.20
cystitis events survey, Median [2, 6]: 5.00
cystitis events survey, Minimum [2, 6]: 3.0
cystitis events survey, Maximum [2, 7]: 16.0
cystitis events survey, Mean [2, 7]: 12.5
cystitis events survey, Median [2, 7]: 12.50
cystitis events survey, Minimum [2, 7]: 9.0
cystitis events survey, Maximum [2, 8]: 8.0
cystitis events survey, Mean [2, 8]: 5.33
cystitis events survey, Median [2, 8]: 6.00
cystitis events survey, Minimum [2, 8]: 3.0
Cystitis Improvement ≥2 Point, cats n/N ([2]; 12.5 μg/10 mL (Cohort 4)): 6/6
Cystitis Improvement ≥2 Point, percent of cats ([2]; 12.5 μg/10 mL (Cohort 4)): (100%)
Cystitis Improvement ≥3 Point, cats n/N ([2]; 12.5 μg/10 mL (Cohort 4)): 6/6
Cystitis Improvement ≥3 Point, percent of cats ([2]; 12.5 μg/10 mL (Cohort 4)): (100%)
Cystitis Improvement ≥2 Point, cats n/N ([2]; 12.5 μg/25 mL (Cohort 3)): 5/5
Cystitis Improvement ≥2 Point, percent of cats ([2]; 12.5 μg/25 mL (Cohort 3)): (100%)
Cystitis Improvement ≥3 Point, cats n/N ([2]; 12.5 μg/25 mL (Cohort 3)): 5/5
Cystitis Improvement ≥3 Point, percent of cats ([2]; 12.5 μg/25 mL (Cohort 3)): (100%)
cystitis events survey, Maximum ([2]; 25 μg (1 μg/mL), Day 0, n 6): 22.0
cystitis events survey, Mean ([2]; 25 μg (1 μg/mL), Day 0, n 6): 16.67
cystitis events survey, Median ([2]; 25 μg (1 μg/mL), Day 0, n 6): 16.50
cystitis events survey, Minimum ([2]; 25 μg (1 μg/mL), Day 0, n 6): 11.0
cystitis events survey, Maximum ([2]; 25 μg (1 μg/mL), Day 28, n 5): 7.0
cystitis events survey, Mean ([2]; 25 μg (1 μg/mL), Day 28, n 5): 4.40
cystitis events survey, Median ([2]; 25 μg (1 μg/mL), Day 28, n 5): 4.00
cystitis events survey, Minimum ([2]; 25 μg (1 μg/mL), Day 28, n 5): 2.0
Cystitis Improvement ≥2 Point, cats n/N ([2]; 25 μg/25 mL (Cohort 1)): 4/5
Cystitis Improvement ≥2 Point, percent of cats ([2]; 25 μg/25 mL (Cohort 1)): (80%)
Cystitis Improvement ≥3 Point, cats n/N ([2]; 25 μg/25 mL (Cohort 1)): 4/5
Cystitis Improvement ≥3 Point, percent of cats ([2]; 25 μg/25 mL (Cohort 1)): (80%)
